Assay results from article PMC9781003, “Two Antenna-Enriched Odorant Binding Proteins in Dioryctria abietella Tuned to General Odorants and Insecticides” (Insects, 2022).
Values joined by “and” are separate entries in the source; they are usually repeats but may differ in a detail not shown here. Equal entries are not always repeated. Where two headings read alike, the source gives them in different places.

Assays:
DabiOBP14 = type: binding, Dioryctria abietella
Description: (§1) In the binding assays, we selected 100 compounds derived from host/non-host plants and man-made insecticides widely used for the control of lepidopteran pests, representing 88 general odorants (21 esters, 21 alcohols, 14 aldehydes, 13 alkenes, seven ketones, 11 alkanes and one acid) and 12 insecticides. These compounds and N-phenyl-1-naphthylamine (1-NPN) were purchased from Aladdin and Sigma-Aldrich, with the highest available purity. They were first diluted into 100 mM, using methanol (HPLC purity grade, ≥99.9%) as a stock solution. The concentrations of the work solution for each ligand and 1-NPN were set at 1 mM.
In order to measure the binding properties of the DabiOBPs to the 100 ligands, competitive binding assays were performed on a RF5301PC fluorescence spectrophotometer (Shimadzu, Japan). The concentrations of DabiOBPs and the fluorescent probe 1-NPN were set at 2 μM. The binding of DabiOBPs to 1-NPN in 20 mM Tris-HCl buffer (pH 7.4) was measured by adding final concentrations of 2–16 μM 1-NPN. Accordingly, binding constants (K1-NPN) of the DabiOBPs and 1-NPN were calculated using GraphPad Prism 7 (GraphPad Software Inc., San Diego, CA). The binding of the DabiOBPs to various ligands was conducted by adding different concentrations of ligands (2, 4, 6, 8, 12, 16 and 20 μM) into the DabiOBP5/1-NPN (each 2 μM) or DabiOBP14/1-NPN (each 2 μM) mixtures. For the ligands replacing over a half of 1-NPN fluorescence (50%) at 20 μM, three replicates were performed. The excitation wavelength was set at 337 nm and the emission peaks were recorded at around 400 nm. The dissociation constants (Ki) of the tested ligands to DabiOBPs were computed, using the equation: Ki = [IC50]/(1 + [1-NPN]/K1-NPN), where [1-NPN] was the free concentration of 1-NPN and IC50 was the concentration of ligands replacing 50% of 1-NPN fluorescence.

DabiOBP5 = target: T1, DabiOBP5 (Dioryctria abietella, UniProt A0A8E6HS34); assay: Competitive fluorescence binding assay with 1-NPN probe, recombinant DabiOBP5
T1 sequence (A0A8E6HS34 19-139): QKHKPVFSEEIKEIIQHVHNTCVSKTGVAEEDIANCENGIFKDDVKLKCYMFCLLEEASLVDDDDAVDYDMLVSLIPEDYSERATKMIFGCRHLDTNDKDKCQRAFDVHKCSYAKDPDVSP
Text: as §1, with “They were first diluted into 100 mM, using methanol (HPLC purity grade, ≥99.9%) as a stock solution.” left out
In order to measure the binding properties of the DabiOBPs to the 100 ligands, competitive binding assays were performed on a RF5301PC fluorescence spectrophotometer (Shimadzu, Japan). The concentrations of DabiOBPs and the fluorescent probe 1-NPN were set at 2 μM. […] Accordingly, binding constants (K1-NPN) of the DabiOBPs and 1-NPN were calculated using GraphPad Prism 7 (GraphPad Software Inc., San Diego, CA). […] For the ligands replacing over a half of 1-NPN fluorescence (50%) at 20 μM, three replicates were performed. The excitation wavelength was set at 337 nm and the emission peaks were recorded at around 400 nm.

[1] = ligand at 20 μM, DabiOBP5/1-NPN each 2 μM, Tris-HCl pH 7.4, NB = no binding, read-out: OBP5 F.D. (%) fluorescence displacement percent
[2] = ligand at 20 μM, DabiOBP14/1-NPN each 2 μM, Tris-HCl pH 7.4, NB = no binding
[3] = ligand at 20 μM, DabiOBP5/1-NPN each 2 μM, Tris-HCl pH 7.4, NB = no binding

Molecule: CCCCOC(C)=O [Butyl acetate]
- OBP14 F.D. (%) fluorescence displacement percent (DabiOBP14; pH 7.4): 0.16%
- inhibition at 20 µM (DabiOBP5; [1]): 31.6%

Molecule: OCCc1ccccc1 [Phenethyl alcohol]
- OBP14 F.D. (%) fluorescence displacement percent (DabiOBP14; [2]): 10.00%
- inhibition at 20 µM (DabiOBP5; [1]): 37.6%

Molecule: CC(=O)c1ccccc1 [Acetophenone]
- OBP14 F.D. (%) fluorescence displacement percent (DabiOBP14; [2]): 36.22%
- inhibition at 20 µM (DabiOBP5; [1]): 38.8%

Molecule: O=C(Oc1ccccc1)c1ccccc1 [Phenyl benzoate]
- OBP14 F.D. (%) fluorescence displacement percent (DabiOBP14; [2]): 34.36%
- inhibition at 20 µM (DabiOBP5; [1]): 31.7%

Molecule: CCCCCCCCCCCC [Dodecane]
- OBP14 F.D. (%) fluorescence displacement percent (DabiOBP14; [2]): 17.71%
- inhibition at 20 µM (DabiOBP5; [1]): 31.9%

Molecule: C=CC(C)(O)CCC=C(C)CCC=C(C)C (mixture of isomers) [Nerolidol]
- OBP14 F.D. (%) fluorescence displacement percent (DabiOBP14; [2]): 37.52%
- inhibition at 20 µM (DabiOBP5; [1]): 34.6%

Molecule: CCOC(C)=O [Ethyl acetate]
- OBP14 F.D. (%) fluorescence displacement percent (DabiOBP14; [2]): 23.29%
- inhibition at 20 µM (DabiOBP5; [1]): 19%

Molecule: CC/C=C\CCOC(=O)CCC [Z3-Hexenyl butyrate]
- OBP14 F.D. (%) fluorescence displacement percent (DabiOBP14; pH 7.4): 26.39%
- OBP5 F.D. (%) fluorescence displacement percent (DabiOBP5; [3]): 20.80%

Molecule: CC(=O)CCC=C(C)C [6-Methyl-5-hepten-2-one]
- OBP14 F.D. (%) fluorescence displacement percent (DabiOBP14; [2]): 34.39%
- inhibition at 20 µM (DabiOBP5; [1]): 40.3%

Molecule: CC(C)=CCCC(C)O (centres unmarked) [6-Methyl-5-hepten-2-ol]
- OBP14 F.D. (%) fluorescence displacement percent (DabiOBP14; [2]): 33.49%
- inhibition at 20 µM (DabiOBP5; [1]): 41.4%

Molecule: CCCCCC=O [Hexanal]
- OBP14 F.D. (%) fluorescence displacement percent (DabiOBP14; [2]): 32.96%
- inhibition at 20 µM (DabiOBP5; [1]): 39.3%

Molecule: O=[N+]([O-])NC1=NCCN1Cc1ccc(Cl)nc1 [Imidacloprid]
- OBP14 F.D. (%) fluorescence displacement percent (DabiOBP14; [2]): 39.56%
- inhibition at 20 µM (DabiOBP5; [1]): 22.5%

Molecule: C=CCCCCCCCCC [1-Undecene]
- inhibition at 20 µM (DabiOBP5; [1]): 17.4%

Molecule: CCCCCCC=O [Heptanal]
- OBP14 F.D. (%) fluorescence displacement percent (DabiOBP14; [2]): 25.87%
- inhibition at 20 µM (DabiOBP5; [1]): 42.5%

Molecule: CC(C)=CCCC(C)=CC=O (mixture of isomers) [Citral]
- OBP14 F.D. (%) fluorescence displacement percent (DabiOBP14; [2]): 32.25%
- inhibition at 20 µM (DabiOBP5; [1]): 39%

Molecule: CCCCCCCOC(C)=O [Heptyl acetate]
- OBP14 F.D. (%) fluorescence displacement percent (DabiOBP14; [2]): 33.70%
- inhibition at 20 µM (DabiOBP5; [1]): 41%

Molecule: CCCCCCCCCCCCO [1-Dodecanol]
- OBP14 F.D. (%) fluorescence displacement percent (DabiOBP14; [2]): 28.55%
- inhibition at 20 µM (DabiOBP5; [1]): 38.7%

Molecule: Abamectin
- OBP14 F.D. (%) fluorescence displacement percent (DabiOBP14; [2]): 4.33%
- OBP5 F.D. (%) fluorescence displacement percent (DabiOBP5; [3]): 24.16%

Molecule: CC1=CCC2C(C1)C2(C)C (centres unmarked) [3-Carene]
- OBP14 F.D. (%) fluorescence displacement percent (DabiOBP14; [2]): 29.92%
- inhibition at 20 µM (DabiOBP5; [1]): 41.6%

Molecule: O=Cc1ccccc1 [Benzaldehyde]
- OBP14 F.D. (%) fluorescence displacement percent (DabiOBP14; [2]): 38.35%
- inhibition at 20 µM (DabiOBP5; [1]): 36.8%

Molecule: c1ccc(Nc2cccc3ccccc23)cc1 [1-NPN, N-phenyl-1-naphthylamine]
- Kd (DabiOBP14; 2 μM protein, 2–16 μM 1-NPN, 20 mM Tris-HCl pH 7.4, read-out: K1-NPN binding constant of DabiOBP14 and 1-NPN): 4.5 ± 0.42 µM
- Kd (DabiOBP5; 2 μM protein, 2–16 μM 1-NPN, 20 mM Tris-HCl pH 7.4, read-out: K1-NPN binding constant of DabiOBP5 and 1-NPN): 7.49 ± 0.69 µM

Molecule: O=C(OCc1ccccc1)c1ccccc1 [Benzyl benzoate]
- OBP14 F.D. (%) fluorescence displacement percent (DabiOBP14; [2]): 49.39%
- inhibition at 20 µM (DabiOBP5; [1]): 47.8%

Molecule: CCCCCCCCCCCC(C)=O [2-Tridecanone]
- OBP14 F.D. (%) fluorescence displacement percent (DabiOBP14; [2]): 32.61%
- inhibition at 20 µM (DabiOBP5; [1]): 35.6%

Molecule: C=C(C)[C@H]1Cc2c(ccc3c2O[C@@H]2COc4cc(OC)c(OC)cc4[C@@H]2C3=O)O1 [Rotenone]
- Ki (DabiOBP14; competitive displacement of 1-NPN, three replicates, mean ± SE, read-out: OBP14 Ki (dissociation constant)): < 13 µM and 10.2 µM
- OBP14 F.D. (%) fluorescence displacement percent (DabiOBP14; [2]): 58.66%
- inhibition at 20 µM (DabiOBP5; pH 7.4, read-out: OBP5 F.D. (%) fluorescence displacement percent): 56%
- Ki (DabiOBP5; read-out: OBP5 Ki (dissociation constant), competitive displacement of 1-NPN, three replicates, mean ± SE): < 13 µM and 12.7 µM

Molecule: CCCCCCCCCCCCCCCCO [1-Hexadecanol]
- OBP14 F.D. (%) fluorescence displacement percent (DabiOBP14; [2]): 31.97%
- inhibition at 20 µM (DabiOBP5; [1]): 37%

Molecule: CCCCCCCCCCO [1-Decanol]
- OBP14 F.D. (%) fluorescence displacement percent (DabiOBP14; [2]): 31.32%
- inhibition at 20 µM (DabiOBP5; [1]): 31.4%

Molecule: CCCCCCCC [Octane]
- inhibition at 20 µM (DabiOBP5; [1]): 27.9%

Molecule: CC(=O)OC/C=C(\C)CCC=C(C)C [Geranyl acetate]
- OBP14 F.D. (%) fluorescence displacement percent (DabiOBP14; [2]): 27.39%
- inhibition at 20 µM (DabiOBP5; [1]): 26.5%

Molecule: CCCCCCCCCCCCC [Tridecane]
- inhibition at 20 µM (DabiOBP5; [1]): 5.52%

Molecule: C/C1=C\CC/C(C)=C/CC(C)(C)/C=C/C1 [α-Caryophyllene]
- OBP5 F.D. (%) fluorescence displacement percent (DabiOBP5; [3]): 15.42%

Molecule: CCCCCCCCCCCO [1-Undecanol]
- inhibition at 20 µM (DabiOBP5; [1]): 37.7%

Molecule: CCCCCCCCCC [Decane]
- inhibition at 20 µM (DabiOBP5; [1]): 20.2%

Molecule: CCCCCCCCC [Nonane]
- inhibition at 20 µM (DabiOBP5; [1]): 22.2%

Molecule: C=C1CC/C=C(\C)CC[C@@H]2[C@@H]1CC2(C)C [β-Caryophyllene]
- inhibition at 20 µM (DabiOBP5; [1]): 16.3%
